2 molecules from patent US20100197611A1, “ALTERNATIVE AGENT WITH VITAMIN D-LIKE ACTIVITY AND AN IMPROVING AGENT FOR INTESTINAL FUNCTION” (priority 2003, published 2010) can be followed below.

The subject of one assay is 24-hydroxylase gene. Nature of the assay: 24-hydroxylase gene expression (mRNA, RT-PCR) in Caco-2 cells. It counts as cell-based. The note with it: 72 hours, 1 mmol/L glucose 1-phosphate sodium salt or 10 nmol/L 1α,25-dihydroxyvitamin D, FIG. 2. An excerpt:
(§1) As a target cell of 1α,25-dihydroxyvitamin D and a sugar-phosphate ester, Caco-2 cells (from Dainippon Pharmaceutical Co. Ltd.) were employed. Caco-2 cells are known to differentiate to epitherial-like cells of small intestine. The Caco-2 cells were suspended in culture medium (10% fetal calf serum, none essential amino acids for MEM, […]/MEM Earle) and added to an insert of a fibrillar collagen culture plate (from Becton Dickinson Inc.). To the plate also, the culture medium was added, and cultured according to a usual method. The media in the insert and the plate were renewed at a regular interval, and the culture was subjected to a test at 15 days of incubation.

The next assay deals with CaT1 gene. Nature of the assay: CaT1 gene expression (mRNA, RT-PCR) in Caco-2 cells. Format: cell-based. The note with it: 72 hours, 1 mmol/L glucose 1-phosphate sodium salt or 10 nmol/L 1α,25-dihydroxyvitamin D, FIG. 3.
Text: as §1

For a further assay, the system named is calbindin D9K. Nature of the assay: Intestinal calbindin D9K expression in aged rats (Western blotting). The following applies: aged rats (9 month, male, SD-IGS), 1.9% by weight in feed for 10 days, compared to control group; FIG. 4. It counts as in vivo. From the text: On 10 days after the test started, rats were made starved by fasting for all day and night, then the small intestines were taken out, followed by extraction, immediate opening of the intestinal canal and stripping off the epitherial mucous membrane to prepare protein extract samples according to the method described by H. J. Armbrecht et al. (Am. J. Physiol., 236(6), e769-e774, 1979). These samples were separated by SDS-PAGE, followed by transferring on PVDF membrane (IPVH, pore size of 0.45, Millipore) in accordance with a usual procedure and assaying of calbindin D9K by the Western blotting method. Rabbit anti-calbindin D9K antibody (from Research Diagnostic Inc.) as the primary antibody and HRP anti-rabbit IgG (Bio-Rad) as the secondary antibody were used, and detected using ECL Plus kit (Bio-Rad). The detected protein bands were further quantified using Scion Image-analyzing software (from Scion Corp.).
Background: A western blot detects proteins with antibodies after separation by electrophoresis.

As for 1α,25-dihydroxyvitamin D, the “gene expression of 24-hydroxylase (mRNA amount divided by housekeeping gene G3PDH)” value in the assay on 24-hydroxylase gene was “significantly enhanced”. Besides, in the assay on CaT1 gene, the “gene expression of CaT1 (mRNA amount divided by housekeeping gene G3PDH)” value is on record as “significantly enhanced”.

Consider `O=P([O-])([O-])O[C@H]1O[C@H](CO)[C@@H](O)[C@H](O)[C@H]1O.[Na+].[Na+]` [glucose 1-phosphate sodium salt], for which the “expression of calbindin D9K in small intestine” value with calbindin D9K is “significantly enhance”.
